Where “and” joins values, the source holds several entries; their conditions need not be identical. Equal values may be shown once. Toxic doses and inconclusive results are not listed.

We go through 17 compounds from PubChem BioAssay AID256 (DTP/NCI, 2004).

The subject of this test is CD2F1 mice, L1210 leukemia ip, survival T/C. Description: NCI In Vivo Anticancer Drug Screen. Data for tumor model L1210 Leukemia (intraperitoneal) in CD2F1 (CDF1) mice. The note with it: higher = longer survival. In short, it runs like this:
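Compound-dosed mice with transplantable tumor versus matched vehicle controls; endpoint ratio T/C reported.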

[1] abbreviates: endpoint: mean survival time, dose: 100.0 mg/kg/injection, schedule: Q01DX001 (ip), vehicle: saline with Tween-80.
Setting [2] is: endpoint: mean survival time, dose: 100.0 mg/kg/injection, schedule: Q04DX003 (ip), vehicle: saline with Tween-80.
[3] abbreviates: endpoint: mean survival time, dose: 200.0 mg/kg/injection, schedule: Q04DX003 (ip), vehicle: saline with Tween-80.
[4] abbreviates: endpoint: mean survival time, dose: 100.0 mg/kg/injection, schedule: Q04DX002 (ip), vehicle: saline with Tween-80.
Where [5] appears, read: endpoint: mean survival time, dose: 200.0 mg/kg/injection, schedule: Q04DX002 (ip), vehicle: saline with Tween-80.
The mark [6] stands for this setting: endpoint: mean survival time, dose: 400.0 mg/kg/injection, schedule: Q04DX002 (ip), vehicle: saline with Tween-80.
Where [7] appears, read: endpoint: mean survival time, dose: 50.0 mg/kg/injection, schedule: Q01DX009 (ip), vehicle: saline.
Where [8] appears, read: endpoint: mean survival time, dose: 100.0 mg/kg/injection, schedule: Q01DX009 (ip), vehicle: saline.
[9] abbreviates: endpoint: mean survival time, dose: 200.0 mg/kg/injection, schedule: Q01DX001 (ip), vehicle: saline with Tween-80.

As to `C(=N\N=C\c1ccco1)/c1ccco1`, the T/C is, setting by setting: (endpoint: mean survival time, dose: 25.0 mg/kg/injection, schedule: Q01DX001 (ip), vehicle: saline with Tween-80) 87 % of control; (endpoint: mean survival time, dose: 50.0 mg/kg/injection, schedule: Q01DX001 (ip), vehicle: saline with Tween-80) 97 % of control; under setting [1], 100 % of control; under setting [2], 97 % of control; under setting [3], 101 % of control.

In the case of `OC1CCCCO1` (stereo not given), the T/C under setting [2] was 100 % of control; the T/C under setting [3] was 103 % of control; the T/C (endpoint: mean survival time, dose: 400.0 mg/kg/injection, schedule: Q04DX003 (ip), vehicle: saline with Tween-80) was 103 % of control.

For the compound `CCOP(=S)(OCC)C(C)(C)C`, the T/C is 107 % of control under setting [4], 103 % of control under setting [5] and 95 % of control under setting [6].

Regarding `CC1CCCC2(C)CCC(C(C)(C)O)CC12` (stereo not given), the T/C (endpoint: mean survival time, dose: 100.0 mg/kg/injection, schedule: Q01DX001 (ip), vehicle: saline) is 103 % of control; the T/C (endpoint: mean survival time, dose: 200.0 mg/kg/injection, schedule: Q01DX001 (ip), vehicle: saline) is 100 % of control; the T/C (endpoint: mean survival time, dose: 400.0 mg/kg/injection, schedule: Q01DX001 (ip), vehicle: saline) is 103 % of control.

For the compound `CC1CCS(=O)(=O)CC1.[Cl][Hg][Cl]`, the T/C reads like this: (endpoint: mean survival time, dose: 0.62 mg/kg/injection, schedule: Q04DX003 (ip), vehicle: saline) 104 % of control; (endpoint: mean survival time, dose: 1.25 mg/kg/injection, schedule: Q04DX003 (ip), vehicle: saline) 106 % of control.

`CC(=O)OCC1OC([S][Sb]([CH3])[CH3])C(OC(C)=O)C(OC(C)=O)C1OC(C)=O` (stereo not given): the T/C (endpoint: mean survival time, dose: 50.0 mg/kg/injection, schedule: Q01DX009 (ip), vehicle: Klucel (hydroxypropylcellulose) (HPC)) is 92 % of control.

With `O=C1O/C(=C2/OC(=O)c3ccccc32)c2ccccc21`, the T/C (endpoint: mean survival time, dose: 50.0 mg/kg/injection, schedule: Q04DX002 (ip), vehicle: saline with Tween-80) was 92 % of control; the T/C under setting [4] was 92 % of control; the T/C under setting [5] is 92 % of control; the T/C under setting [6] was 96 % of control.

As to `O=C(O)C1CSCN1` (stereo not given), the T/C was 97 % of control (endpoint: mean survival time, dose: 3.12 mg/kg/injection, schedule: Q01DX009 (ip), vehicle: saline); 101 % of control (endpoint: mean survival time, dose: 3.12 mg/kg/injection, schedule: Q01DX009 (ip), vehicle: water); 98 % of control (endpoint: mean survival time, dose: 6.25 mg/kg/injection, schedule: Q01DX009 (ip), vehicle: saline); 93 % of control (endpoint: mean survival time, dose: 6.25 mg/kg/injection, schedule: Q01DX009 (ip), vehicle: water); 96 % of control (endpoint: mean survival time, dose: 12.5 mg/kg/injection, schedule: Q01DX009 (ip), vehicle: saline); 102 % of control (endpoint: mean survival time, dose: 12.5 mg/kg/injection, schedule: Q01DX009 (ip), vehicle: water). Further, the T/C (endpoint: mean survival time, dose: 25.0 mg/kg/injection, schedule: Q01DX009 (ip), vehicle: saline) was 93 % of control; the T/C (endpoint: mean survival time, dose: 25.0 mg/kg/injection, schedule: Q01DX009 (ip), vehicle: water) is 98 % of control; the T/C under setting [7] was 100 % of control; the T/C (endpoint: mean survival time, dose: 50.0 mg/kg/injection, schedule: Q01DX009 (ip), vehicle: water) was 95 % of control; the T/C under setting [8] was 95 % of control; the T/C (endpoint: mean survival time, dose: 100.0 mg/kg/injection, schedule: Q01DX009 (ip), vehicle: water) is 95 % of control. The T/C is 93 % of control (endpoint: median survival time, dose: 3.12 mg/kg/injection, schedule: Q01DX009 (ip), vehicle: Klucel (hydroxypropylcellulose) (HPC)); 95 % of control (endpoint: median survival time, dose: 6.25 mg/kg/injection, schedule: Q01DX009 (ip), vehicle: Klucel (hydroxypropylcellulose) (HPC)); 102 % of control (endpoint: median survival time, dose: 12.5 mg/kg/injection, schedule: Q01DX009 (ip), vehicle: Klucel (hydroxypropylcellulose) (HPC)); 108 % of control (endpoint: median survival time, dose: 15.0 mg/kg/injection, schedule: Q01DX005 (ip), vehicle: saline); 91 % of control (endpoint: median survival time, dose: 25.0 mg/kg/injection, schedule: Q01DX009 (ip), vehicle: Klucel (hydroxypropylcellulose) (HPC)); 101 % of control (endpoint: median survival time, dose: 50.0 mg/kg/injection, schedule: Q01DX005 (ip), vehicle: saline). Also, the T/C by setting is: (endpoint: median survival time, dose: 50.0 mg/kg/injection, schedule: Q01DX009 (ip), vehicle: Klucel (hydroxypropylcellulose) (HPC)) 95 % of control; (endpoint: median survival time, dose: 60.0 mg/kg/injection, schedule: Q01DX005 (ip), vehicle: saline) 103 % of control; (endpoint: median survival time, dose: 100.0 mg/kg/injection, schedule: Q01DX009 (ip), vehicle: Klucel (hydroxypropylcellulose) (HPC)) 91 % of control; (endpoint: median survival time, dose: 120.0 mg/kg/injection, schedule: Q01DX005 (ip), vehicle: saline) 100 % of control.

Consider `COc1cccc2c1C(=O)c1c(O)c3c(c(O)c1C2=O)C[C@@](O)(C(=O)CN1CCN(C)CC1)C[C@@H]3OC1CC(N)C(O)C(C)O1` (stereo not given in full), for which the T/C is, setting by setting: (endpoint: mean survival time, dose: 6.25 mg/kg/injection, schedule: Q04DX003 (ip), vehicle: water) 88 % of control; (endpoint: mean survival time, dose: 12.5 mg/kg/injection, schedule: Q04DX003 (ip), vehicle: water) 90 % of control; (endpoint: mean survival time, dose: 25.0 mg/kg/injection, schedule: Q04DX003 (ip), vehicle: water) 90 % of control; (endpoint: mean survival time, dose: 50.0 mg/kg/injection, schedule: Q04DX003 (ip), vehicle: water) 91 % of control; (endpoint: mean survival time, dose: 100.0 mg/kg/injection, schedule: Q04DX003 (ip), vehicle: water) 86 % of control.

With `NCCCCCBr`, the T/C by setting is: under setting [7], 98 % of control; under setting [8], 90 % of control; (endpoint: mean survival time, dose: 200.0 mg/kg/injection, schedule: Q01DX009 (ip), vehicle: saline) 98 % of control.

As for `CCOC(=O)Nc1cc(NCc2ccccc2)c(N)c(N)n1`, the T/C runs as follows: under setting [1], 103 % of control; under setting [9], 103 % of control.

`O=C(C[n+]1cccc(C(=O)NCc2ccccc2)c1)Nc1ccc(Cl)cc1`: under “endpoint: mean survival time, dose: 100.0 mg/kg/injection, schedule: Q04DX003 (ip), vehicle: saline”, the T/C was 94 % of control.

Regarding `O=C1C=C(N2CC2)C(=O)C(N2CC2)=C1N1CC1`, the T/C was 113 % of control (endpoint: median survival time, dose: 12.5 micrograms/kg/injection, schedule: Q01DX009 (ip), vehicle: saline); 96 % of control (endpoint: median survival time, dose: 25.0 micrograms/kg/injection, schedule: Q01DX009 (ip), vehicle: saline with Tween-80); 113 % of control (endpoint: median survival time, dose: 25.0 micrograms/kg/injection, schedule: Q01DX009 (ip), vehicle: saline); 118 % of control and 108 % of control (endpoint: median survival time, dose: 50.0 micrograms/kg/injection, schedule: Q01DX009 (ip), vehicle: saline with Tween-80); 156 % of control (endpoint: median survival time, dose: 100.0 micrograms/kg/injection, schedule: Q01DX009 (ip), vehicle: saline with Tween-80); 164 % of control and 190 % of control (endpoint: median survival time, dose: 200.0 micrograms/kg/injection, schedule: Q01DX009 (ip), vehicle: saline with Tween-80). For the same compound, the T/C (endpoint: median survival time, dose: 400.0 micrograms/kg/injection, schedule: Q01DX009 (ip), vehicle: saline with Tween-80) was 87 % of control and 91 % of control.

On to `NCCCC(N)(C(=O)O)C(F)F` (stereo not given), for which the T/C was 102 % of control (endpoint: median survival time, dose: 50.0 mg/kg/injection, schedule: Q01DX009 (ip), vehicle: distilled water + alcohol); 102 % of control (endpoint: median survival time, dose: 100.0 mg/kg/injection, schedule: Q01DX009 (ip), vehicle: distilled water + alcohol); 105 % of control (endpoint: median survival time, dose: 200.0 mg/kg/injection, schedule: Q01DX009 (ip), vehicle: distilled water + alcohol); 113 % of control (endpoint: median survival time, dose: 400.0 mg/kg/injection, schedule: Q01DX009 (ip), vehicle: distilled water + alcohol); 103 % of control (endpoint: median survival time, dose: 800.0 mg/kg/injection, schedule: Q01DX009 (ip), vehicle: distilled water + alcohol); 103 % of control (endpoint: median survival time, dose: 1.0 % drug in feed or water or air, schedule: Q#C X 1 (adlb), vehicle: water). Further, the T/C (endpoint: median survival time, dose: 3.0 % drug in feed or water or air, schedule: Q#C X 1 (adlb), vehicle: water) was 116 % of control.

Take `CNc1cc(=O)[nH]cn1`: the T/C runs as follows: under setting [1], 95 % of control; under setting [9], 100 % of control; (endpoint: mean survival time, dose: 400.0 mg/kg/injection, schedule: Q01DX001 (ip), vehicle: saline with Tween-80) 101 % of control.

As to `COc1cc(CN(C)CCO)ccc1OCc1ccccc1`, the T/C is, setting by setting: under setting [2], 102 % of control; under setting [3], 96 % of control.

For the compound `C=CCCCCCCCCC(=O)NC(C)COC` (stereo not given), the T/C runs as follows: under setting [1], 107 % of control; under setting [9], 98 % of control.
